Experimental data taken from US20220289731A1, “MELANOCORTIN-4 RECEPTOR AGONISTS” (LG CHEM, LTD., priority 2019, published 2022).
Like-named read-outs stand apart in the source and are kept apart here.

Key:
MC4R [1] = biological target: T1, MC4R (Homo sapiens, UniProt P32245); test: β-arrestin assay (Pathhunter eXpress U2OS cell line); assay type: cell-based; set-up: expressed in transfected cells; host or cells: U2OS (Pathhunter eXpress β-arrestin cell line); details: U2OS cells, 90 min at 37° C.
Text: The melanocortin receptor is a type of G-protein coupled receptor (GPCR) and regulates various physiological responses by transducing signals from many neurotransmitters. When GPCR is phosphorylated, β-arrestin is bound to the phosphorylated part of the receptor and plays an important role in activating various signaling pathways in cells through interaction with other proteins. It is known that, when the melanocortin receptor interacts with an agonist, β-arrestin is mobilized and is involved in the β-arrestin-mediated signaling pathway. Therefore, the activity of the melanocortin receptor can be evaluated through the measurement of β-arrestin.
A Pathhunter eXpress β-arrestin cell line (U2OS cell line) in which Prolink (PK)-tagged MC1R, MC3R, MC4R, MC5R and Enzyme acceptor (EA)-tagged β-arrestin were expressed together was established. When the MCR-PK portion of this cell line is activated, β-arrestin-EA is mobilized, and enzyme acceptor (EA) and Prolink (PK), which are the β-galactosidase enzyme fragments, interact. The activated enzyme hydrolyzes the substrate by β-galactosidase activity to produce a chemiluminescent signal, so that the activity can be measured. After the Pathhunter eXpress β-arrestin cell line (U2OS cell line) was incubated, the cells were inoculated into each well of the cell culture plate and incubated for 48 hours in a 37° C. incubator in the presence of 5% CO2. After the incubation, 5 μl of the sample diluted 5 times with buffer was added, the vehicle concentration was set to 1%, and the MC4R agonist compound diluted at each step concentration was added, followed by reaction at 37° C. for 90 minutes. The activity (%) of each agonist compound is expressed as 100%×(average RLU value of sample−average RLU value of vehicle control)/(average maximum value of control ligand−average RLU value of vehicle control), and the value was analyzed by CBIS data analysis suite (ChemInnovation, CA).
Target sequence in this assay (P32245 whole entry): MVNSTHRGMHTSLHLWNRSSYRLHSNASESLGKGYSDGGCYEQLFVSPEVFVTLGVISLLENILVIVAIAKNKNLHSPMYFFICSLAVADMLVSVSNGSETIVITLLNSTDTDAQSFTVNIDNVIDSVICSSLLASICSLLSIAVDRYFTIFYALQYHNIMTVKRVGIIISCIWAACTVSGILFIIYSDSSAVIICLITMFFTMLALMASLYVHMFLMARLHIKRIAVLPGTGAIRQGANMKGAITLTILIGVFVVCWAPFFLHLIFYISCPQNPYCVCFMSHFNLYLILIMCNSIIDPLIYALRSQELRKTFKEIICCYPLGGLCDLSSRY
Target sequence in this assay (P32121 whole entry partner): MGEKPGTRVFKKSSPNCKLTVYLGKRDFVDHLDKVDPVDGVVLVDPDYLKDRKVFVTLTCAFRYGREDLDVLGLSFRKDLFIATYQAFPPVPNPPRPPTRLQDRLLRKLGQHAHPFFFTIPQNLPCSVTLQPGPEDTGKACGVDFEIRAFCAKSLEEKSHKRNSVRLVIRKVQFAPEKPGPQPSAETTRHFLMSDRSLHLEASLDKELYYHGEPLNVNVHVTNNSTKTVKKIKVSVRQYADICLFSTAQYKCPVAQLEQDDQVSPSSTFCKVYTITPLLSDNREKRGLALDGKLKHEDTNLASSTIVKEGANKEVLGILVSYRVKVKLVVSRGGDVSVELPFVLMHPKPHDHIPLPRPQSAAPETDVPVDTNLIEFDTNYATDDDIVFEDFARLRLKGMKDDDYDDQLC

[2] = Pharmacokinetic profile in mice, plasma and brain, oral administration; assay type: in vivo, C57BL6 mice; details: 10 mg/kg; for AUC(0-inf) / half-life / Cmax / Kp: C57BL6, mouse; for Kp: brain/plasma, read-out: Brain to Plasma AUC ratio, mean ratio
Procedure: In order to investigate the pharmacokinetics (PK) properties of the compound of Example 1 and the compounds of comparative examples, the following experiment was performed. In order to perform the PK test for the compound of Example 1 and the compounds of the comparative examples ([…]), about 7 week-old C57BL6 mice were prepared, 12 individuals were assigned per administered substance, separated into groups, and starved for oral administration. On the day of administration, a drug solution was prepared at a concentration of 1 mg/mL by using distilled water (DW) as a vehicle and was orally administered at […] body weight of each individual, and the final dose was 10 mg/kg. At 1, 3, 8, and 24 hours after the administration, whole blood was collected through cardiac blood collection from each of the 3 individuals in each group and then placed in a heparin tube to prevent coagulation. Thereafter, the cerebrum of each individual was collected and placed in an EP tube, the weight of the tissue was measured, and frozen storage was performed at -20° C. […] In this case, AN included an internal standard. […] After 0.5 μL of the supernatant obtained after deproteinization was injected into LC-MS/MS, peak areas of the compounds of the example and the comparative examples ([…]) were corrected with the peak areas of IS to obtain the peak response at each sample collection point and perform the concentration conversion by a calibration curve. The pharmacokinetic parameters (Cmax, AUCinf, t1/2, and the like) were calculated by a noncompartmental analysis method by using WinNonlin 8.1 for the values of the blood concentration with time for each administration group. The pharmacokinetic characteristics of each compound were compared by comparing exposure, half-life changes, and the like for each drug administration group, and the resultant values are shown in Tables 5 and 6.

MC4R [3] = biological target: T1, MC4R; test: Binding affinity, 125I-NDP-α-MSH displacement on membranes; set-up: expressed in transfected cells; host or cells: HEK-293 cells; membranes collected; details: HEK-293 MC4R membrane, 0.02 nM 125I-NDP-α-MSH
Text: Five subtypes of melanocortin receptor (MCR) in vivo are known, and it is known that MC4R, which is Subtype 4, is involved in energy metabolism and weight control. Since other MCR subtypes are involved in the regulation of various functions in vivo such as skin pigmentation, energy homeostasis, and exocrine functions, securing selectivity for MC4R of MC4R agonist compounds is very important in preventing possible side effects in the future. Therefore, the receptor binding abilities of MC4R agonists for each MCR subtype were measured.
After the CHO-K1 cell line expressing human recombinant MC1R and the HEK-293 cell lines expressing MC3R, MC4R and MCSR were established, membranes were collected from each cell line. In a 96-well cell culture plate, 3 μg MC1R membrane and 0.04 nM ^125I-NDP-α-MSH per well were reacted at 37° C. for two hours. 3 μg MC3R and MCSR membrane and 0.035 nM ^125I-NDP-α-MSH were reacted at 37° C. for one hour, and 3.12 μg MC4R membrane and 0.02 nM ^125I-NDP-α-MSH were reacted at 37° C. for two hours. At this time, 25 mM HEPES-KOH adsorption buffer (pH 7.0) containing MCR agonist diluted at each step concentration was added to each well and reacted. The reacted solution was transferred to a filter and washed with an adsorption buffer, and then radioactivity was measured. The value excluding the non-specific binding amount in the presence of 1 μM (MC1R) and 3 μM (MC3R, MC4R, MCSR) of NDP-α-MSH from each total binding amount was used as specific binding amounts of ^125I-NDP-α-MSH. The degree to which the ^125I-NDP-α-MSH specific binding was inhibited by the agonist diluted at each step concentration was measured. IC50 was expressed as the concentration of each agonist that inhibited specific binding of 50% of ^125I-NDP-α-MSH.
Target sequence in this assay (P32245 whole entry): as the sequence (P32245 whole entry) above

[4] = brain, read-out: t1/2, Brain (converted)
[5] = plasma, read-out: AUCinf, Plasma
[6] = plasma, read-out: t1/2, Plasma (converted)

Which results are given for `CC(=O)N(C1CCC(C)(C)CC1)[C@H]1C[C@@H](C(=O)N2CCOCC2)N(C(=O)[C@@H]2CN(C(C)(C)C)C[C@H]2c2ccc(F)cc2F)C1.Cl` [Comparative Example 1 (A95), N-((3S,5S)-1-((3S,4R)-1-(tert-butyl)-4-(2,4-difluorophenyl)pyrrolidine-3-carbonyl)-5-(morpholine-4-carbonyl)pyrrolidin-3-yl)-N-(4,4-dimethylcyclohexyl)acetamide hydrochloride]?
EC50 (MC4R [1]): 176 nM; Cmax, Brain ([2]; brain): 20 ng/mL; AUC(0-inf) ([2]; brain, read-out: AUCinf, Brain): 222 ng·h/mL; half-life [2, 4]: 6 h; Cmax ([2]; plasma): 205 ng/mL; AUC(0-inf) [2, 5]: 565 ng·h/mL; half-life [2, 6]: 2.7 h; Kp [2]: 0.39; Ki (MC4R [3]): 1400 nM

Which results are given for `CC(=O)N(C1CCC(C)(C)CC1)[C@H]1C[C@@H](C(=O)N2CCOCC2)N(C(=O)[C@@H]2CN(C(C)(C)C)C[C@H]2c2ccc(Cl)cc2)C1.Cl` [Comparative Example 2 (A96), N-((3S,5S)-1-((3S,4R)-1-(tert-butyl)-4-(4-chlorophenyl)pyrrolidine-3-carbonyl)-5-(morpholine-4-carbonyl)pyrrolidin-3-yl)-N-(4,4-dimethylcyclohexyl)acetamide hydrochloride]?
EC50 (MC4R [1]): 44.3 nM; Cmax, Brain ([2]; brain): 27.1 ng/mL; AUC(0-inf) ([2]; brain, read-out: AUCinf, Brain): 530 ng·h/mL; half-life [2, 4]: 8 h; Cmax ([2]; plasma): 337 ng/mL; AUC(0-inf) [2, 5]: 1650 ng·h/mL; half-life [2, 6]: 2.6 h; Kp [2]: 0.32; Ki (MC4R [3]): 360 nM

Which results are given for `CC(C)C(=O)N([C@H]1C[C@@H](C(=O)N2CCOCC2)N(C(=O)[C@@H]2CN(C(C)(C)C)C[C@H]2c2ccc(Cl)cc2)C1)[C@H]1CC[C@@H](C)CC1.Cl` [Example 1, N-((3S,5S)-1-((3S,4R)-1-(tert-butyl)-4-(4-chlorophenyl)pyrrolidine-3-carbonyl)-5-(morpholine-4-carbonyl)pyrrolidin-3-yl)-N-((1s,4R)-4-methylcyclohexyl)isobutyramide hydrochloride]?
EC50 (MC4R [1]): 4.6 nM; Cmax, Brain ([2]; brain): 49.1 ng/mL; AUC(0-inf) ([2]; brain, read-out: AUCinf, Brain): 1500 ng·h/mL; half-life [2, 4]: 19 h; Cmax ([2]; plasma): 232 ng/mL; AUC(0-inf) [2, 5]: 2070 ng·h/mL; half-life [2, 6]: 3.9 h; Kp [2]: 0.72; Ki (MC4R [3]): 65 nM
